Calls of active or inactive are those of the source. No cut-off for these calls is given here.
How the values were obtained:
[1] = target: T1, Signal transducer and activator of transcription 3 (Homo sapiens, UniProt P40763); assay: Inhibition of STAT3 in human Capan-2 cells assessed as inhibition of STAT3 phosphorylation at Ser 727 at 1 to 30 nM incubated for 22 to 24 hrs by western blot analysis; assay type: cell-based; settings: dose 1-30 nM, time 22-24 hrs, DDE = dose-dependent effect
[2] = Microsomal stability in human liver microsomes assessed as intrinsic clearance incubated upto 40 mins in presence of NADPH by LC-MS/MS analysis; assay type: ADME, Microsome; settings: read-out: CLH
[3] = Toxicity in BALB/c mouse xenografted with human BXPC-3 cells assessed as effect on liver at 30 mg/kg,po administrated once daily for 8 weeks by H and E staining based microscopic analysis; assay type: organism-based; settings: in vivo, 1344 h
[4] = target: T1, Signal transducer and activator of transcription 3; assay: Inhibition of STAT3 in human BXPC-3 cells assessed as inhibition of STAT3 phosphorylation at Tyr 705 at 10 nM incubated for 22 to 24 hrs by western blot analysis; assay type: cell-based; settings: time 22-24 hrs
[5] = target: T1, Signal transducer and activator of transcription 3; assay: Inhibition of STAT3 in human Capan-2 cells assessed as inhibition of STAT3 phosphorylation at Tyr 705 at 10 nM incubated for 22 to 24 hrs by western blot analysis; assay type: cell-based; settings: time 22-24 hrs
[6] = target: T1, Signal transducer and activator of transcription 3; assay: Inhibition of STAT3 in human BXPC-3 cells assessed as reduction of c-Myc expression at 1 to 30 nM incubated for 22 to 24 hrs by western blot analysis; assay type: cell-based; settings: dose 1-30 nM, time 22-24 hrs, DDE = dose-dependent effect
[7] = Toxicity in BALB/c mouse xenografted with human BXPC-3 cells assessed as effect on lung at 30 mg/kg,po administrated once daily for 8 weeks by H and E staining based microscopic analysis; assay type: organism-based; settings: in vivo, 1344 h
[8] = Toxicity in BALB/c mouse xenografted with human BXPC-3 cells assessed as effect on heart at 30 mg/kg,po administrated once daily for 8 weeks by H and E staining based microscopic analysis; assay type: organism-based; settings: in vivo, 1344 h
[9] = target: T1, Signal transducer and activator of transcription 3; assay: Inhibition of STAT3 in human BXPC-3 cells assessed as reduction of c-Myc expression at 30 nM incubated for 4 to 24 hrs by western blot analysis; assay type: cell-based; settings: time 4-24 hrs, TDE = time-dependent effect
[10] = target: T1, Signal transducer and activator of transcription 3; assay: Inhibition of STAT3 in human HEK293T cells assessed as inhibition of IL-6 stimulated STAT3 phosphorylation by dual-luciferase reporter assay; assay type: cell-based
[11] = target: T1, Signal transducer and activator of transcription 3; assay: Inhibition of STAT3 in human BXPC-3 cells assessed as inhibition of STAT3 phosphorylation at Ser 727 at 30 nM incubated for 4 to 24 hrs by western blot analysis; assay type: cell-based; settings: time 4-24 hrs, TDE = time-dependent effect
[12] = target: T1, Signal transducer and activator of transcription 3; assay: Inhibition of STAT3 in human BXPC-3 cells assessed as inhibition of IL-6 stimulated STAT3 phosphorylation at Tyr 705 at 1 to 30 nM by western blot assay; assay type: cell-based; settings: dose 1-30 nM, DDE = dose-dependent effect
[13] = target: T1, Signal transducer and activator of transcription 3; assay: Inhibition of STAT3 in human Capan-2 cells assessed as inhibition of STAT3 phosphorylation at Tyr 705 at 30 nM incubated for 4 to 24 hrs by western blot analysis; assay type: cell-based; settings: time 4-24 hrs, TDE = time-dependent effect
BXPC-3 [14] = assay: Inhibition of mitochondrial respiration in human BXPC-3 cells assessed as reduction in oxygen consumption rate at 1 to 30 nM incubated for 1 hr by seahorse XF96 flux analyzer; assay type: functional, cell-based; settings: dose 1-30 nM, DDE = dose-dependent effect
Cytochrome P450 2D6 = Cytochrome P450 2D6 (Homo sapiens, UniProt P10635); assay: Inhibition of CYP2D6 in human liver microsomes using dextromethorphan as substrate incubated for 60 mins in presence of NADPH by HPLC analysis; assay type: ADME, Microsome
BXPC-3 [15] = assay: Inhibition of mitochondrial respiration in human BXPC-3 cells assessed as reduction in maximal respiration rate at 1 to 30 nM incubated for 1 hr by seahorse XF96 flux analyzer; assay type: functional, cell-based; settings: dose 1-30 nM, DDE = dose-dependent effect
[16] = AUC (0-24hrs) in BALB/c mouse at 1 mg/kg,iv measured upto 24 hrs by LC-MS/MS analysis; assay type: ADME, organism-based; set-up: time < 24 hrs, dose 1 mg/kg, route iv; settings: in vivo
[17] = Microsomal stability in dog liver microsomes assessed as compound remaining incubated for 60 mins in presence of NADPH by LC-MS/MS analysis; assay type: ADME, Canis lupus familiaris, Microsome; settings: read-out: Stability
CFPAC-1 = assay: Anti-proliferative activity against human CFPAC-1 cells assessed as cell growth inhibition incubated for 72 hrs by MTS assay; assay type: functional, cell-based; settings: CFPAC-1, 72 h
[18] = AUC (0-infinity) in BALB/c mouse at 1 mg/kg,iv measured upto 24 hrs by LC-MS/MS analysis; assay type: ADME, organism-based; set-up: dose 1 mg/kg, time < 24 hrs, route iv; settings: in vivo
[19] = target: T1, Signal transducer and activator of transcription 3; assay: Inhibition of STAT3 in human Capan-2 cells assessed as inhibition of STAT3 phosphorylation at Ser 727 at 30 nM incubated for 4 to 24 hrs by western blot analysis; assay type: cell-based; settings: time 4-24 hrs, TDE = time-dependent effect
Cytochrome P450 2C19 = Cytochrome P450 2C19 (Homo sapiens, UniProt P33261); assay: Inhibition of CYP2C19 in human liver microsomes; assay type: ADME, Microsome
[20] = MRT (0 to last) in BALB/c mouse at 10 mg/kg,po measured upto 24 hrs by LC-MS/MS analysis; assay type: ADME, organism-based; settings: in vivo
[21] = target: Mitogen-activated protein kinase 3 (Homo sapiens, UniProt P27361); assay: Inhibition of ERK1 (unknown origin)
[22] = Half life in BALB/c mouse at 1 mg/kg,iv measured upto 24 hrs by LC-MS/MS analysis; assay type: ADME, organism-based; settings: in vivo
[23] = Toxicity in BALB/c mouse xenografted with human BXPC-3 cells assessed as body weight change at 30 mg/kg,po administrated once daily for 8 weeks; assay type: organism-based; settings: in vivo, 1344 h
[24] = target: T1, Signal transducer and activator of transcription 3; assay: Inhibition of STAT3 in human BXPC-3 cells assessed as reduction of Cyclin D1 expression at 1 to 30 nM incubated for 22 to 24 hrs by western blot analysis; assay type: cell-based; settings: dose 1-30 nM, time 22-24 hrs, DDE = dose-dependent effect
[25] = target: T1, Signal transducer and activator of transcription 3; assay: Thermal stabilization of STAT3 in human BXPC-3 cells at 10 microM at 44.6 degreeC incubated for 1 hrs by cellular thermal shift assay; assay type: cell-based
[26] = target: Proto-oncogene tyrosine-protein kinase Src (Homo sapiens, UniProt P12931); assay: Inhibition of SRC (unknown origin)
BXPC-3 [27] = assay: Antitumor activity against human BXPC-3 cells xenografted BALB/c mouse model assessed as tumor growth inhibition at 30 mg/kg,po administrated once daily for 8 weeks; assay type: functional; settings: BXPC-3, 1344 h, read-out: TGI
[28] = target: T1, Signal transducer and activator of transcription 3; assay: Inhibition of STAT3 in human Capan-2 cells assessed as inhibition of STAT3 phosphorylation at Ser 727 at 10 nM incubated for 22 to 24 hrs by western blot analysis; assay type: cell-based; settings: time 22-24 hrs
Mus musculus = assay: In vivo inhibition of STAT3 in BALB/c mouse xenografted with human BXPC-3 cells assessed as inhibition of STAT3 phosphorylation at Tyr 705 at 10 mg/kg,po administrated once daily for 8 weeks by immunohistochemical analysis; assay type: functional, organism-based
[29] = Inhibition of ATP production in human BXPC-3 cells incubated for 20 to 24 hrs by ATP assay kit method; assay type: functional, cell-based
PC-3 = assay: Inhibition of colony formation in human PC-3 cells at 1000 nM incubated for 5 to 7 days by crystal violet staining assay; assay type: functional, cell-based; settings: time 5-7 day
[30] = target: Tyrosine-protein kinase JAK2 (Homo sapiens, UniProt O60674); assay: Inhibition of JAK2 (unknown origin)
Tyrosine-protein kinase JAK2, sequence (O60674 whole entry): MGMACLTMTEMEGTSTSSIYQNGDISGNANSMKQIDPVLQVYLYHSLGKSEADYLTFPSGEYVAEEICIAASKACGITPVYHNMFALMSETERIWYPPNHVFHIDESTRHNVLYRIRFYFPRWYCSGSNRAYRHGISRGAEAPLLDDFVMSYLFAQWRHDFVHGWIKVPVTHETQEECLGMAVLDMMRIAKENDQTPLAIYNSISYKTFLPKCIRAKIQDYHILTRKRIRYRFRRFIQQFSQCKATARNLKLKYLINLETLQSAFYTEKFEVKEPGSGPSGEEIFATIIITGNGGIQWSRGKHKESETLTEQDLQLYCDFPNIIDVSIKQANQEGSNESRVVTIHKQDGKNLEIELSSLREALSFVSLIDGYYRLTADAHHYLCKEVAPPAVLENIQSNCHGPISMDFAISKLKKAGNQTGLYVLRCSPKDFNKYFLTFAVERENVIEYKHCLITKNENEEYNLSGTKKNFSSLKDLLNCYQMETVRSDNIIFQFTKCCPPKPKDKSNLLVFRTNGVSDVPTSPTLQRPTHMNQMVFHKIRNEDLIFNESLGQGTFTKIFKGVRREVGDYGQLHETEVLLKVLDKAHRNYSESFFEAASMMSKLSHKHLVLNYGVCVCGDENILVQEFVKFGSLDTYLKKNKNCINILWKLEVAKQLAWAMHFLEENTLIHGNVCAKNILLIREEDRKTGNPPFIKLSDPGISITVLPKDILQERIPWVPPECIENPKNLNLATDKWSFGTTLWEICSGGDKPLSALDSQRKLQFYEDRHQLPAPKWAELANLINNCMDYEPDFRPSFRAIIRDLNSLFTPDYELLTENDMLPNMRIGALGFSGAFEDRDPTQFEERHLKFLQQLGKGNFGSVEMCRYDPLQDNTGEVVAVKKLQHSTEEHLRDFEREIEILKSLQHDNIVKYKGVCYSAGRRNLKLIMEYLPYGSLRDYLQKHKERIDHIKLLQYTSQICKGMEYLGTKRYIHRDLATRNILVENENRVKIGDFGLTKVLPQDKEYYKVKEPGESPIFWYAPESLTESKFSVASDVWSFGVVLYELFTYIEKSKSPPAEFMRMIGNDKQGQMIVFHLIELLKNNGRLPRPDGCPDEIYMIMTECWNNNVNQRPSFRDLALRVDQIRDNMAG

T1 sequence (P40763 whole entry): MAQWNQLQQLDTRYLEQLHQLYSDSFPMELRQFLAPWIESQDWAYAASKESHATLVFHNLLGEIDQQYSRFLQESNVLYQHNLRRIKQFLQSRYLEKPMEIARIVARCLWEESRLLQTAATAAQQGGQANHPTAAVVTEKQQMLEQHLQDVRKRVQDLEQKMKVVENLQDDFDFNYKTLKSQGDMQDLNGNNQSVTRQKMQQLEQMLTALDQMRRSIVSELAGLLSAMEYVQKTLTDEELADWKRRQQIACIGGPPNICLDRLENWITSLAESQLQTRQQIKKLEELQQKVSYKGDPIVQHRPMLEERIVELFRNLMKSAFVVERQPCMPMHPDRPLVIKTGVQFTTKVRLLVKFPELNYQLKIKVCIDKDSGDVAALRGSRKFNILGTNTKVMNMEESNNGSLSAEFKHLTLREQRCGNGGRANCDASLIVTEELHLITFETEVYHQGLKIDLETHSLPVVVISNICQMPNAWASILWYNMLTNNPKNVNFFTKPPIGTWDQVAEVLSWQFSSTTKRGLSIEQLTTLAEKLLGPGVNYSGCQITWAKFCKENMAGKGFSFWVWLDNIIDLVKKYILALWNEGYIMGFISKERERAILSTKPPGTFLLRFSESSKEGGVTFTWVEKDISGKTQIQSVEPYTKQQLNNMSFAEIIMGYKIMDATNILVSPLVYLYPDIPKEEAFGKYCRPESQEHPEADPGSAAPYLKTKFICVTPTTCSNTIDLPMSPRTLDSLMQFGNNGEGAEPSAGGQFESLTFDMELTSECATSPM
Mitogen-activated protein kinase 3, sequence (P27361 whole entry): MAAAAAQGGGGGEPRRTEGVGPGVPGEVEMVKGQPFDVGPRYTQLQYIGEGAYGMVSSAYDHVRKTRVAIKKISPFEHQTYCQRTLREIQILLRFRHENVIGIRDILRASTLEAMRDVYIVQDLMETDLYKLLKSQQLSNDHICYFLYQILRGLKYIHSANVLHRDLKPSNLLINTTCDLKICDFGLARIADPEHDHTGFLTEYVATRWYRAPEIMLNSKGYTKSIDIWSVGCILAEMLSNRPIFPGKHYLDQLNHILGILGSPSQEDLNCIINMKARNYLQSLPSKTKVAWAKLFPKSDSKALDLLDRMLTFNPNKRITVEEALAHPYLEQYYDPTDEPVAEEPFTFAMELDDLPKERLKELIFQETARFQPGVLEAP
Proto-oncogene tyrosine-protein kinase Src, sequence (P12931 2-536 limits assumed): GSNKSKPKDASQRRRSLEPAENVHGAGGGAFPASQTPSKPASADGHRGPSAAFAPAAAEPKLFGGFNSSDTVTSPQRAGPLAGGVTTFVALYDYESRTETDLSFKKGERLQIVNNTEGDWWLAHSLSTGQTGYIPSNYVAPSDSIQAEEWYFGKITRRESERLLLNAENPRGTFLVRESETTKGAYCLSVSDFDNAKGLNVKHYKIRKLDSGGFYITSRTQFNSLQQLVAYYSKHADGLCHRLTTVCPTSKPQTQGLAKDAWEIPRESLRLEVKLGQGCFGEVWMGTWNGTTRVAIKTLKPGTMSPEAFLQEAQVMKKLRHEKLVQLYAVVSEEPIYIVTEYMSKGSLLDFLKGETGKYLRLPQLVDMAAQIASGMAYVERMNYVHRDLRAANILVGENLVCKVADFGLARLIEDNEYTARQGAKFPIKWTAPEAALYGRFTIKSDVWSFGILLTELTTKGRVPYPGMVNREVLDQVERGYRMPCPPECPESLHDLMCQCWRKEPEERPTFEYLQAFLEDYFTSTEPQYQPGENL
Cytochrome P450 2C19, sequence (P33261 whole entry): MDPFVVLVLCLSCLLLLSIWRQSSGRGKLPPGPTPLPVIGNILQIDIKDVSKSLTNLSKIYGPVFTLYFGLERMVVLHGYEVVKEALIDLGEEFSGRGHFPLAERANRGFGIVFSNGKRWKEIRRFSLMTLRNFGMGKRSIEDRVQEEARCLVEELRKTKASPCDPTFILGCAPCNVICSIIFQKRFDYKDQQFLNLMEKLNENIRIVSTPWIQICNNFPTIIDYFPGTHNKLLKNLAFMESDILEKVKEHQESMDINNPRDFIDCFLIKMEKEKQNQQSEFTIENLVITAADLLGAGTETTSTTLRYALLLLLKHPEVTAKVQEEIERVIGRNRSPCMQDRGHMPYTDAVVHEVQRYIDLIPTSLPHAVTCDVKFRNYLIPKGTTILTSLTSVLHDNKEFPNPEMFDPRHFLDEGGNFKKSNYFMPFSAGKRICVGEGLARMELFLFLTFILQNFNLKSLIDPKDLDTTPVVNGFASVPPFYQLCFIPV
Cytochrome P450 2D6, sequence (P10635 whole entry): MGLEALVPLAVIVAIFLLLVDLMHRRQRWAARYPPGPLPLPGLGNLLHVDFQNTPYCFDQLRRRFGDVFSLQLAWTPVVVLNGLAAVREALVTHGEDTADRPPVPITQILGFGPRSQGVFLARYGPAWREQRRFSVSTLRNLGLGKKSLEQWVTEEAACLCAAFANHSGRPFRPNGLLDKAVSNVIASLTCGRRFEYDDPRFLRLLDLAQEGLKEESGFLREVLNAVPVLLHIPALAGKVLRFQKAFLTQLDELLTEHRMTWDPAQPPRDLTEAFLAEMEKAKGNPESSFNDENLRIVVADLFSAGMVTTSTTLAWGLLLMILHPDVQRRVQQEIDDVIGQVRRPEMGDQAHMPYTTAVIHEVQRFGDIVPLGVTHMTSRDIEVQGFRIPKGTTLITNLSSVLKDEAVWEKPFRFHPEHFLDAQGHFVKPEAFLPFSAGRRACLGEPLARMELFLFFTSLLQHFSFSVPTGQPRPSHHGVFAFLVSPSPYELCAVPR

inhibition [1]: Dde | microsomal CLint [2]: 18.3 µL/min/mg | inhibition [4]: Active | inhibition [5]: Active | inhibition [6]: Dde | inhibition [9]: Tde | IC50 [10]: 5.3 nM | inhibition [11]: Tde | inhibition [12]: Dde | inhibition [13]: Tde | IC50 (Cytochrome P450 2D6): > 50000 nM | AUC(0-t) at 24 h [16]: 9510 ng·h/mL | remaining at 1 h [17]: 55.8% | AUC(0-inf) [18]: 11600 ng·h/mL | inhibition [19]: Tde | IC50 (Cytochrome P450 2C19): > 50000 nM | MRT last at 24 h [20]: 9.8 h | IC50 [21]: > 10000 nM | half-life [22]: 10.2 h | inhibition [24]: Dde | Activity [25]: Active | IC50 [26]: > 10000 nM | inhibition [28]: Active | IC50 [29]: 4.2 nM | IC50 [30]: > 10000 nM
Structure (SMILES): COc1ccc(-c2noc(-c3cnc(Oc4ccc5cc(C(=O)N6CCN(Cc7ccc(OCC(F)(F)F)cc7)CC6)n(C)c5c4)cn3)n2)cc1
Activity [3]: Non-Toxic | Activity [7]: Non-Toxic | Activity [8]: Non-Toxic | inhibition (BXPC-3 [14]): Dde | inhibition (BXPC-3 [15]): Dde | IC50 (CFPAC-1): 6 nM | Activity [23]: Non-Toxic | inhibition in vivo at 30 mg/kg (BXPC-3 [27]): 74.6% | inhibition (Mus musculus): Active | inhibition (PC-3): Active

Source: ChEMBL document CHEMBL5096221, “Discovery of a Highly Potent and Orally Bioavailable STAT3 Dual Phosphorylation Inhibitor for Pancreatic Cancer Treatment” (J Med Chem, 2022)
